The target in one experiment is T1, wild-type VLCAD (Mus musculus, UniProt P50544).
T1 construct: 3xFLAG (C); host or cells: Hepa 1 to 6 cells
T1 sequence (P50544 42-656): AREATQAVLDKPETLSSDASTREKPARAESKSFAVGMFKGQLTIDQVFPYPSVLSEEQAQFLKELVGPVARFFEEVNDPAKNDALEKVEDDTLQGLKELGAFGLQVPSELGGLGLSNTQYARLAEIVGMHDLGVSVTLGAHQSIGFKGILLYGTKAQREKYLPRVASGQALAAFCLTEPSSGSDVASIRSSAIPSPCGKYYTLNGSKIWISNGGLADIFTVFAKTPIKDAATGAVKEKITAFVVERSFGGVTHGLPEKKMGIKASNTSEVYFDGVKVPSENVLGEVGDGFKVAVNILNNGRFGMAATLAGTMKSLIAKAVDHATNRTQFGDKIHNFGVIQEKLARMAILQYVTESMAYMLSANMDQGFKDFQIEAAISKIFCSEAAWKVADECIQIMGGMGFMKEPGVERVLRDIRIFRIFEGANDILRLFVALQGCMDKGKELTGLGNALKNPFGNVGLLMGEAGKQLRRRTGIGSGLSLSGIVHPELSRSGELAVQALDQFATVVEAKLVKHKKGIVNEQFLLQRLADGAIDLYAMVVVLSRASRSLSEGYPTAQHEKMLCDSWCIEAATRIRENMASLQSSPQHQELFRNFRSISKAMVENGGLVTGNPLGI
The experiment is described as follows: Hepa 1 to 6 cells expressing FLAG-tagged wild-type VLCAD exposed to GSNO. It is filed as cell-based. On the procedure:
Liver homogenate (final concentration of 0.03 μg/μl) or cell lysate (final concentration of 0.09 μg/μl) in 100 mM potassium phosphate buffer (pH 7.2) containing 0.2% Triton X-100 and 0.1 mM EDTA was mixed with […] ferricenium ion, and the reaction was initiated by the addition of palmitoyl-CoA (the final volume of the assay was 130 μl). […] At least nine concentrations of palmitoyl-CoA, ranging from 0.015 to 2 mM, were used for the experimental determination of the apparent Vmax and KM of VLCAD for each animal. […] A unit of enzyme activity is defined as the amount of enzyme that causes the reduction of […] of ferricenium per minute at room temperature (ε=4.3 mM^−1 cm^−1 at 300 nm) (Izai et al. (1992) J. Biol. Chem., 267:1027-1033). […] The measurement of specific activity of VLCAD in liver homogenates (FIG. 2H) and cell lysates (FIG. 4) was performed in the presence of 0.25 and 0.125 mM palmitoyl-CoA, respectively.
Hepa 1 to 6 cells were grown in Dulbecco's modified Eagle's medium (DMEM) containing 10% fetal bovine serum, 2 mM glutamine, penicillin (100 U/ml), and streptomycin ([…]) at 37° C. in air with 5% CO2. Cells were plated at a density of 5×10^4 cells/cm^2 and cultured under normal conditions for 24 hours. Cells were transfected with FLAG®-tagged wild-type VLCAD or FLAG®-tagged C238A VLCAD with Lipofectamine® 2000 reagent (Life Technologies) according to the protocol provided by the manufacturer. Forty-eight hours after transfection, the growth medium was replaced with serum-free DMEM, and […] freshly prepared GSNO was added for 30 minutes, after which the cells were extensively washed with PBS. Cell lysates were obtained immediately or 60, 120, and 240 minutes after the removal of GSNO. The samples were protected from UV light exposure. Lysates were assayed for protein concentration, and equal amounts of protein per sample were used for organic mercury-assisted capture.

The target of experiment [1] is T2, VLCAD (Mus musculus, UniProt P50544).
T2 sequence (P50544 42-656): T1 sequence (P50544 42-656)

The target in experiment [2] is T2, VLCAD. As to the kind of experiment: VLCAD activity assay (ferricenium) in liver homogenates from injected ob/ob mice.
Experiment [3] addresses T2, VLCAD. As to the kind of experiment: Quantification of S-nitrosylated VLCAD by organomercury capture in liver of treated mice. It is filed as in vivo. Also noted: Liver homogenate (final concentration of 0.03 μg/μl) or cell lysate; from tissue; host or cells: mouse liver (C57BL/6J wild-type, ob/ob, eNOS-/-). To be noted: ob/ob mouse liver, from 25% S-nitrosylated VLCAD. As to the method: A detailed experimental procedure for the preparation and activation of columns, homogenate preparation for reaction with organic mercury resin, has been described (Doulias et al. (2010) Proc. Natl. Acad. Sci., 107:16958-16963). Three biological replicates from each organ were analyzed. […] The false identification rate was <6% for brain and <3% for all other organs. For washes, stringent conditions were selected due to the differences in lipid content among the six organs. Columns were initially washed with 50 bed volumes of 50 mM tris-HCl (pH 7.4) containing 300 mM NaCl and 0.5% SDS, followed by 50 bed volumes of the same buffer containing 0.05% SDS. Columns were washed with 50 bed volumes of 50 mM tris-HCl containing 300 mM NaCl (pH 7.4), 1% Triton X-100, and 1 M urea, followed by 50 bed volumes of the same buffer containing 0.1% Triton X-100 and 0.1 M urea. Finally, columns were washed with 200 bed volumes of water before proteins were eluted with 10 ml of 50 mM β-mercaptoethanol in water. Samples were concentrated and analyzed by gel-LC (liquid chromatography)-MS/MS analysis. For on-column digestion after the final wash with water, the columns were washed with 10 bed volumes of 0.1 M ammonium bicarbonate. Bound proteins were subjected to digestion by the addition of Trypsin Gold (1 μg/ml) (Promega) in one bed volume of 0.1 M […] in the dark for 16 hours at room temperature. […]

Setting [4] is: 60, 120, 240 minutes after removal of GSNO and washing.

The text below walks through data of US10434079B2, “Compositions and methods for the treatment of fatty acid metabolism disorders” (The Children's Hospital of Philadelphia, priority 2013, dated 2019).

For the compound `N[C@@H](CCC(=O)N[C@@H](CSN=O)C(=O)NCC(=O)O)C(=O)O` [GSNO, S-nitrosoglutathione], on wild-type VLCAD (setting [4]), the “abundance of S-nitrosylated VLCAD after removal of GSNO” value was “declined over time” and the “enzymatic-specific activity after removal of GSNO” value is “declined over time”. Also, on wild-type VLCAD (GSNO treatment, 0.125 mM palmitoyl-CoA), the VLCAD-specific activity result is reported as “significantly higher”. Besides, on VLCAD [1] (5 μM GSNO 30 minutes prior to the assay, 0.25 mM palmitoyl-CoA), the “VLCAD specific activity of untreated eNOS-/- relative to eNOS-/- liver tissue treated with GSNO” value is “significantly lower”. Moreover, the “KM for VLCAD enzymatic activity, treated vs untreated homogenate” value on VLCAD [1] (eNOS-/- liver homogenates treated ex vivo with GSNO) was “increased five-fold”. The “S-nitrosylation of VLCAD at Cys238 ex vivo” value on VLCAD [1] (eNOS-/- liver homogenates treated with GSNO) is “readily modified”. In addition, the “acyl dehydrogenase-mediated oxidation of palmitoyl-CoA” value on VLCAD [2] (GSNO-treated ob/ob mouse liver) is “increase”. On VLCAD [2] (liver homogenates), the “apparent KM in PBS-injected ob/ob homogenates relative to wild-type and GSNO-injected ob/ob mice” value is “more than fivefold higher”. The “increase of catalytic efficiency (kcat/KM) of S-nitrosylated VLCAD vs unmodified protein” value on VLCAD [3] is 29 fold.
